One experiment concerns the target T1, hDP/Gqs5 (Homo sapiens, UniProt Q13258).
T1 construct: expressed in transfected cells; host or cells: HEK-293(EBNA)
T1 sequence (Q13258 1-359): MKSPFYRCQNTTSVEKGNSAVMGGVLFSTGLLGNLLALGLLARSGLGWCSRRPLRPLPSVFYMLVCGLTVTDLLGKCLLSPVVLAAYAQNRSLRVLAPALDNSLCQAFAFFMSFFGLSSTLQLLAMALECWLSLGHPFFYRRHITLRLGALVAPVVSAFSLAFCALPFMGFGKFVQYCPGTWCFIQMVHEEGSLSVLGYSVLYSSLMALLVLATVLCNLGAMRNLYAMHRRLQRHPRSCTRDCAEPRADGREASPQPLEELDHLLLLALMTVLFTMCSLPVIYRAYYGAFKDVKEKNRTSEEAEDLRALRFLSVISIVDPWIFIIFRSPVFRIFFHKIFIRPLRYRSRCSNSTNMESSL
The experiment in a line: hDP FLIPR calcium signal study. Conditions: HEK-293(EBNA) cells expressing hDP/Gqs5; read-out: Other Receptors (EC50 in nM) hDP. The experiment is classed as cell-based. The protocol: (§1) Methods for FLIPR™ Studies
(§2) HEK-293(EBNA) cells, stably expressing one type or subtype of recombinant human prostaglandin receptors (prostaglandin receptors expressed: hDP/Gqs5; hEP1; hEP2/Gqs5; hEP3A/Gqi5; hEP4/Gqs5; hFP; hIP; hTP), were cultured in 100 mm culture dishes in high-glucose DMEM medium containing 10% fetal bovine serum, 2 mM 1-glutamine, 250 μg/ml geneticin (G418) and 200 μg/ml hygromycin B as selection markers, and 100 units/ml penicillin G, 100 μg/ml streptomycin and 0.25 μg/ml amphotericin B.
(§3) (b) Calcium Signal Studies on The FLIPR™
(§4) Cells were seeded at a density of 5×10^4 cells per well in Biocoat® Poly-D-lysine-coated black-wall, clear-bottom 96-well plates (Becton-Dickinson) and allowed to attach overnight in an incubator at 37° C. Cells were then washed two times with HBSS-HEPES buffer (Hanks Balanced Salt Solution without bicarbonate and phenol red, 20 mM HEPES, pH 7.4) using a Denley Cellwash plate washer (Labsystems). After 45 minutes of dye-loading in the dark, using the calcium-sensitive dye Fluo-4 […] at a final concentration of 2 μM, plates were washed four times with HBSS-HEPES buffer to remove excess dye leaving 100 μl in each well. Plates were re-equilibrated to 37° C. for a few minutes.
(§5) Cells were excited with an Argon laser at 488 nm, and emission was measured through a 510-570 nm bandwidth emission filter (FLIPR™, Molecular Devices, Sunnyvale, Calif.). Drug solution was added in a 50 μl volume to each well to give the desired final concentration. The peak increase in fluorescence intensity was recorded for each well. On each plate, four wells each served as negative (HBSS-HEPES buffer) and positive controls (standard agonists: BW245C (hDP); PGE2 (hEP1; hEP2/Gqs5; hEP3A/Gqi5; hEP4/Gqs5); PGF2α (hFP); carbacyclin (hIP); U-46619 (hTP), depending on receptor). The peak fluorescence change in each drug-containing well was then expressed relative to the controls.
(§6) Compounds were tested in a high-throughput (HTS) or concentration-response (CoRe) format. In the HTS format, forty-four compounds per plate were examined in duplicates at a concentration of 10^−5 M. To generate concentration-response curves, four compounds per plate were tested in duplicates in a concentration range between 10^−5 and 10^−11 M. The duplicate values were averaged. In either, HTS or CoRe format each compound was tested on at least 3 separate plates using cells from different passages to give an n>3.

The target of experiment [1] is T2, EP2 (Homo sapiens, UniProt P43116). Briefly: EP2 competition binding (Ki) vs [3H]PGE2. More on the design: expressed in transfected cells; host or cells: HEK 293. As to conditions: HEK 293 cells stably expressing human EP2, [3H]PGE2; unit inferred. The protocol: Competition binding experiments were performed in a medium containing Hank's balanced salt solution, Hepes 20 mM, pH 7.3, membranes (˜60 μg protein) or 2×10^5 cells from HEK 293 cells stably expressing human EP2 receptors, [^3H]PGE2 (10 nM) and various concentrations of test compounds in a total volume of 300 μl. Reaction mixtures were incubated at 23° C. for 60 min, and were filtered over Whatman GF/B filters under vacuum. Filters were washed three times with 5 ml ice-cold buffer containing 50 mM Tris/HCl (pH 7.3). Non-specific binding was estimated in the presence of excess unlabeled PGE2 (10 μM). Binding data fitted to the binding model for a single class of binding sites, using nonlinear regression analysis. IC50 values thus obtained were converted to Ki using the equation of Ki=(IC50/(1+[L]/KD) where [L] represents PGE2 concentration (10 nM) and KD the dissociation constant for [^3H]PGE2 at human EP2 receptors (40 nM).
T2 sequence (P43116 whole entry): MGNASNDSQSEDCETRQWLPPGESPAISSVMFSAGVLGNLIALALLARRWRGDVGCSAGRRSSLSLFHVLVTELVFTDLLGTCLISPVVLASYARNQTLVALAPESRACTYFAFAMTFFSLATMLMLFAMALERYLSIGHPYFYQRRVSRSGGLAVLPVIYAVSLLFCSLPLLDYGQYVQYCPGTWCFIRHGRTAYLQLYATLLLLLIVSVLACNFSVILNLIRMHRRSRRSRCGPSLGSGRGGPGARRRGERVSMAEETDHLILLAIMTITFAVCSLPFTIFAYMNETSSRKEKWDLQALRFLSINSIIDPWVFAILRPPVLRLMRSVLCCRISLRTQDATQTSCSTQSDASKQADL
(§7) Cells Stably Expressing EP1, EP2, EP4 and FP Receptors
(§8) HEK-293 cells stably expressing the human or feline FP receptor, or EP1, EP2, or EP4 receptors were washed with TME buffer, scraped from the bottom of the flasks, and homogenized for 30 sec using a Brinkman PT 10/35 polytron. TME buffer was added to achieve a final 40 ml volume in the centrifuge tubes (the composition of TME is 100 mM TRIS base, 20 mM MgCl2, […]; 10N HCl is added to achieve a pH of 7.4).
(§9) The cell homogenate was centrifuged at 19000 r.p.m. for 20 min at 4° C. using a Beckman Ti-60 rotor. The resultant pellet was resuspended in TME buffer to give a final 1 mg/ml protein concentration, as determined by Biorad assay. Radioligand binding competition assays vs. [^3H-]17-phenyl PGF2α (5 nM) were performed in a […] volume for 60 min. Binding reactions were started by adding plasma membrane fraction. The reaction was terminated by the addition of 4 ml ice-cold TRIS-HCl buffer and rapid filtration through glass fiber GF/B filters using a Brandel cell harvester. The filters were washed 3 times with ice-cold buffer and oven dried for one hour.
(§10) [^3H-] PGE2 (specific activity 180 Ci mmol) was used as the radioligand for EP receptors. [^3H] 17-phenyl PGF2, was employed for FP receptor binding studies. Binding studies employing EP1, EP2, EP4 and FP receptors were performed in duplicate in at least three separate experiments. A 200 μl assay volume was used. Incubations were for 60 min at 25° C. and were terminated by the addition of 4 ml of ice-cold 50 mM TRIS-HCl, followed by rapid filtration through Whatman GF/B filters and three additional 4 ml washes in a cell harvester (Brandel). Competition studies were performed using a final concentration of 5 nM [^3H]-PGE2, or 5 nM [^3H] 17-phenyl PGF2, and non-specific binding determined with 10^−5M of unlabeled PGE2, or 17-phenyl PGF2α, according to receptor subtype studied.

For experiment [2], the target named is T2, EP2. The experiment in a line: EP2 cAMP assay. The experiment is classed as cell-based. Conditions: unit inferred. On the technique in general: cAMP levels reflect the balance of adenylyl cyclase and phosphodiesterase activity.
For the next experiment, the target named is T3, EP4 receptors (Homo sapiens, UniProt P35408).
T3 construct: expressed in transfected cells; host or cells: HEK-293
T3 sequence (P35408 whole entry): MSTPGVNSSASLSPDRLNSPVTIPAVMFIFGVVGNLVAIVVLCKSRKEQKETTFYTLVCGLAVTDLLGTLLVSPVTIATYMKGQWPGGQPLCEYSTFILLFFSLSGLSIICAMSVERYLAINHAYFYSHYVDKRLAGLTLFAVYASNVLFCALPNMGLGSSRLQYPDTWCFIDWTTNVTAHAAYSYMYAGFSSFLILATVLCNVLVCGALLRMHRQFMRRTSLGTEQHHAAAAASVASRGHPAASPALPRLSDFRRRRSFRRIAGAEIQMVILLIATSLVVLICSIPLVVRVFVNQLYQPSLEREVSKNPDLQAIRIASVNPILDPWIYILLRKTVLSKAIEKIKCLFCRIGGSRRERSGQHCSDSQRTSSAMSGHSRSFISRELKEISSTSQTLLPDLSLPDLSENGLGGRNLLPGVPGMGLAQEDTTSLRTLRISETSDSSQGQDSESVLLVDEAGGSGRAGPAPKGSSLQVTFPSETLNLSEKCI
The experiment in a line: EP4 radioligand binding (Ki) vs [3H]PGE2. Conditions: unit inferred. Here is the method:
as §7, §8, §9, §10

The next experiment concerns the target T4, hEP2/Gqs5 (Homo sapiens, UniProt P43116).
T4 construct: expressed in transfected cells; host or cells: HEK-293(EBNA)
Briefly: EP2 FLIPR calcium signal study. The experiment is classed as cell-based. Conditions: HEK-293(EBNA) cells expressing hEP2/Gqs5; unit inferred. The protocol: as §1, §2, §3, §4, §5, §6

In the next experiment the target is T5, hEP3A/Gqi5 (Homo sapiens, UniProt P43115).
T5 construct: expressed in transfected cells; host or cells: HEK-293(EBNA)
T5 sequence (P43115 1-390): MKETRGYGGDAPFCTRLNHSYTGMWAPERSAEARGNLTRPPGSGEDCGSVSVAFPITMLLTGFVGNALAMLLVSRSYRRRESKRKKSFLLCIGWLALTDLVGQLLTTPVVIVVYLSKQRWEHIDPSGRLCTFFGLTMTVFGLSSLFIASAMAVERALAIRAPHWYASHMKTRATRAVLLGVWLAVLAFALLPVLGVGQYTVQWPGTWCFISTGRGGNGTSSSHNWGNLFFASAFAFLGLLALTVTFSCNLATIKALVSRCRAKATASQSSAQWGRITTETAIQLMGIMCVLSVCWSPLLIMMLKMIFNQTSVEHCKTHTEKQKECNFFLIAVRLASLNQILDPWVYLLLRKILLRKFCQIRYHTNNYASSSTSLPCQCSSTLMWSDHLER
The experiment in a line: hEP3A FLIPR calcium signal study. The experiment is classed as cell-based. Conditions: HEK-293(EBNA) cells expressing hEP3A/Gqi5; read-out: Other Receptors (EC50 in nM) hEP3A. Here is the method:
as §1, §2, §3
(§11) Cells were seeded at a density of 5×10^4 cells per well in Biocoat® Poly-D-lysine-coated black-wall, clear-bottom 96-well plates (Becton-Dickinson) and allowed to attach overnight in an incubator at 37° C. Cells were then washed two times with HBSS-HEPES buffer (Hanks Balanced Salt Solution without bicarbonate and phenol red, 20 mM HEPES, pH 7.4) using a Denley Cellwash plate washer (Labsystems). […]
(§12) Cells were excited with an Argon laser at 488 nm, and emission was measured through a 510-570 nm bandwidth emission filter (FLIPR™, Molecular Devices, Sunnyvale, Calif.). […] The peak increase in fluorescence intensity was recorded for each well. […] The peak fluorescence change in each drug-containing well was then expressed relative to the controls. […]

A further experiment has as its target T6, hEP4/Gqs5 (Homo sapiens, UniProt P35408).
T6 construct: expressed in transfected cells; host or cells: HEK-293(EBNA)
The experiment in a line: EP4 FLIPR calcium signal study. The experiment is classed as cell-based. As to conditions: HEK-293(EBNA) cells expressing hEP4/Gqs5; unit inferred. Here is the method:
as §1, §2, §3, §11, §12

By EC50 is commonly meant the midpoint of the concentration-response curve. As usually defined, the Ki is a measure of affinity in units of concentration, obtained from inhibition or displacement. High values mean weaker binding, low ones tighter binding.

T4 sequence (P43116 whole entry): as the sequence (P43116 whole entry) above
T6 sequence (P35408 whole entry): as the sequence (P35408 whole entry) above

On to `CCCCCCC(O)c1ccc(N2C(=O)CC[C@@H]2COCc2ccc(C(=O)O)s2)cc1` (mixture of isomers) [Example 13, 5-{(R)-1-[4-(1-Hydroxy-heptyl)-phenyl]-5-oxo-pyrrolidin-2-ylmethoxymethyl}-thiophene-2-carboxylic acid], for which the 50% effective concentration (EC50) at hDP/Gqs5 came to 5760 nM; at EP2 [2], 1.5 nM; at hEP2/Gqs5 it was 20 nM. For the same compound, the Ki on EP2 [1] is 190 nM; on EP4 receptors, above 10000 nM.

On to `CCCCCC(O)c1ccc(N2C(=O)CC[C@@H]2CCCc2ccc(C(=O)O)s2)cc1` (mixture of isomers) [Example 17, 5-(3-{(S)-1-[4-(1-Hydroxy-hexyl)-phenyl]-5-oxo-pyrrolidin-2-yl}-propyl)-thiophene-2-carboxylic acid], for which the 50% effective concentration (EC50) on hDP/Gqs5 was 1230 nM; on EP2 [2], 0.55 nM; on hEP3A/Gqi5, 155 nM; on hEP2/Gqs5, 5 nM. For the same compound, the Ki on EP2 [1] is 23 nM; at EP4 receptors, above 10000 nM.

`CCCC(O)c1ccc(N2C(=O)CC[C@@H]2COCc2ccc(C(=O)O)s2)cc1` (mixture of isomers) [Example 14, 5-{(R)-1-[4-(1-Hydroxy-butyl)-phenyl]-5-oxo-pyrrolidin-2-ylmethoxymethyl}-thiophene-2-carboxylic acid]: the Ki was 1640 nM at EP2 [1] and above 10000 nM on EP4 receptors. Besides, the EC50 was 27 nM at EP2 [2] and 426 nM at hEP2/Gqs5.

Regarding `CCCCCCC(O)c1ccc(N2C(=O)CC[C@@H]2CCCc2ccc(C(=O)O)s2)cc1` (mixture of isomers) [Example 36, 5-(3-{(S)-1-[4-(1-Hydroxy-heptyl)-phenyl]-5-oxo-pyrrolidin-2-yl}-propyl)-thiophene-2-carboxylic acid], the EC50 at hDP/Gqs5 was 105 nM; on hEP4/Gqs5, above 10000 nM; at hEP3A/Gqi5 it was 47 nM; on hEP2/Gqs5, 30 nM.

`CCCCCC(O)c1ccc(N2C(=O)CC[C@@H]2COCc2cccc(C(=O)O)c2)cc1` (mixture of isomers) [Example 11, 3-{(R)-1-[4-(1-Hydroxy-hexyl)-phenyl]-5-oxo-pyrrolidin-2-ylmethoxymethyl}-benzoic acid]: the EC50 at EP2 [2] was 517 nM; at hEP2/Gqs5 it was above 10000 nM. The Ki on EP4 receptors is above 10000 nM.

As for `CCCCC[C@@H](O)c1ccc(N2C(=O)CC[C@@H]2/C=C/Cc2ccc(C(=O)O)s2)cc1` (racemic) [Example 16, 5-((E and Z)-3-{(R)-1-[4-(1-Hydroxy-hexyl)-phenyl]-5-oxo-pyrrolidin-2-yl}-allyl)-thiophene-2-carboxylic acid], the inhibitory constant (Ki) was 1380 nM on EP2 [1] and above 10000 nM on EP4 receptors. Besides, the results for the EC50 at EP2 [2] and on hEP2/Gqs5 were 15 nM and 226 nM, respectively.

On to `CCCCCC(O)c1ccc(N2C(=O)CC[C@@H]2COc2ccc(C(=O)O)cc2)cc1` (mixture of isomers) [Example 43, 4-{(R)-1-[4-(1-Hydroxy-hexyl)-phenyl]-5-oxo-pyrrolidin-2-ylmethoxy}-benzoic acid], for which the values for the Ki on EP2 [1] and at EP4 receptors were 22700 nM and 8750 nM, respectively. The concentration giving a half-maximal response (EC50) on hEP2/Gqs5 is 7280 nM.

Regarding `CCCCC(O)c1ccc(N2C(=O)CC[C@@H]2COCc2ccc(C(=O)O)s2)cc1` (mixture of isomers) [Example 12, 5-{(R)-1-[4-(1-Hydroxy-pentyl)-phenyl]-5-oxo-pyrrolidin-2-ylmethoxymethyl}-thiophene-2-carboxylic acid], the values for the inhibitory constant (Ki) on EP2 [1] and at EP4 receptors were 387 nM and above 10000 nM, respectively. Moreover, the EC50 at EP2 [2] turned out to be 8 nM; on hEP2/Gqs5, 212 nM.

For the compound `CCC(O)c1ccc(N2C(=O)CC[C@@H]2COCc2ccc(C(=O)O)s2)cc1` (mixture of isomers) [Example 15, 5-{(R)-1-[4-(1-Hydroxy-propyl)-phenyl]-5-oxo-pyrrolidin-2-ylmethoxymethyl}-thiophene-2-carboxylic acid], the EC50 at hDP/Gqs5 was 7560 nM; on EP2 [2], 312 nM; on hEP4/Gqs5, above 10000 nM; on hEP2/Gqs5 it was 1810 nM. For the same compound, the Ki was 5730 nM on EP2 [1] and above 10000 nM at EP4 receptors.

For the origin of these results see patent publication US7592364B2, “Substituted gamma lactams as therapeutic agents” (Allergan, Inc., priority 2006, dated 2009).
